From patent publication US8592446B2, “[1,10]-phenanthroline derivatives for the treatment of neurodegenerative or haematological diseases” (Noscira, S.A., priority 2007, dated 2013)
Where two headings read alike, the source gives them in different places.

Tests used:
[1] = Screening pharmacokinetic study, plasma and brain (LC-MS/MS); format: in vivo, mice (C57BL6/J); conditions: mice; for Kp / bioavailability / Tmax / half-life / AUC / Cmax: male, C57BL6/J, mouse; for Kp: brain and plasma
Experimental: The objective of this study is to evaluate the oral bioavailability and the plasmatic and brain pharmacokinetic parameters after oral and intravenous administration, thus determining if compounds of formula (I) are able to cross the blood brain barrier (BBB). […] Each compound was solved in appropriate excipients. In the case of oral administration, compound was administered by means of an oral gavage coupled to a syringe. In the intravenous administration animals, the test item was administered by a single injection with a syringe coupled to a 30 G needle.
Two animals were sacrificed (according to internal SOPs and following animal handling and welfare guidelines) at each selected extraction times (i.e. 30 min, 1 h, 2 h, 4 h, 6 h, 8 h and 24 hours after administration), and from each animal, both brain and blood samples were obtained. Plasma was extracted by centrifugation of the blood samples. Each sample time represents two male mice from which samples were obtained.
The method for the analysis of plasma and brain samples involved isolation of the analyte from the biological matrix by protein precipitation or solid-phase extraction followed by analysis using LC-MS/MS. Limits of quantification for these compounds were in the order of 2-10 ng/mL. The software Winnonlin professional version 5.2 was used for the calculation of pharmacokinetic parameters.
In the following tables, the abbreviations have the meaning indicated below: • AUC=Area under the curve • T1/2=Half-life • Tmax=the time after administration of a drug when the maximum plasma concentration is reached; when the rate of absorption equals the rate of elimination • Cmax=maximum plasma concentration of the drug • V. Adm. and Vol. Adm.=volume of administration

[2] = system: SH-SY5Y human neuroblastoma cells; assay: Toxicity: LDH activity release in SH-SY5Y cells; format: cell-based; conditions: 24 h; for Maximum concentration tested for toxicity: increasing concentrations from 1 μM up to 1 mM
Experimental: The potential effects on cell viability of the assayed compounds are assayed in SH-SY5Y human neuroblastoma cells, by quantification of Lactate dehydrogenase (LDH) activity release. SH-SY5Y human neuroblastoma cells are seeded into 96-well culture plates at 10^4 cells/well. The medium is then removed and the cells incubated with different concentrations of the compounds during 24 h. The compounds are tested at increasing concentrations starting from 1 μM, in fresh culture medium, in order to find the minimum concentration at which the compounds are toxic, up to a maximum of 1 mM. After 24 h, the medium is removed and cells attached to the bottom of the well are lysed by adding 50 μl of Krebs-Hepes; Triton X-100 1% during 5 minutes at room temperature. For LDH release quantification, the Roche cytotoxicity detection kit (Cat.
No. 11 644 793 001) is used. The LDH activity is measured by its absorbance at 492 nm with reference wavelength 620 nm.
In Table 1, for each compound the maximum concentration at which toxicity was tested is indicated in the second column. In the third column, it is indicated whether at this maximum concentration the compound was toxic or not. All the compounds, with the exception of Compound 3, resulted non-toxic at the concentration for which activity was found, in most of the cases even at a 1000-fold concentration. Thus, the compounds may be considered non-toxic.

[3] = system: SH-SY5Y human neuroblastoma cells; assay: Protection against hydrogen peroxide-induced cell death (LDH); format: cell-based; conditions: compound 1 h before H2O2 100 μM, 24 h; for minimal effective concentration: Homo sapiens, SH-SY5Y, read-out: Protect. H2O2 (minimum concentration for which protection was determined)
Experimental: The aim of this assay is to determine the neuroprotective effect of the compounds of formula (I), when human neuroblastoma cells are exposed to oxidative stress induced by hydrogen peroxide, which is highly deleterious to the cell and its accumulation causes oxidation of cellular targets such as DNA, proteins, and lipids leading to mutagenesis and cell death.
SH-SY5Y human neuroblastoma cells are seeded into 96-well culture plate at a density of 10^4 cells/well. Cells are exposed to different concentrations of the compound one hour before the treatment with H2O2 100 μM during 24 h. 5 mM N-acetylcysteine (NAC), a known anti-oxidant agent was used as a positive control, and preincubated 1 hour before the treatment with H2O2. After 24 h, the medium is removed and cells attached to the bottom of the well are lysed by adding 50 μl of Triton X-100 1% in Krebs-Hepes during 5 minutes at room temperature. For LDH release quantification, Roche cytotoxicity detection kit (Cat. No. 11 644 793 001) was used.

[4] = iv, brain AUC relative to plasma AUC, intravenous route, group 1-2 mg/kg, read-out: % AUC
[5] = iv, brain Cmax relative to plasma Cmax, intravenous route, group 1-2 mg/kg, read-out: % Cmax
[6] = po, 20 mg/kg, brain AUC relative to plasma AUC, 20 mg/kg oral route, read-out: % AUC
[7] = po, 20 mg/kg, brain Cmax relative to plasma Cmax, 20 mg/kg oral route, read-out: % Cmax
[8] = plasma, 20 mg/kg oral route (low dose)
[9] = plasma, 200 mg/kg oral route (high dose)
[10] = intravenous route, group 1-2 mg/kg (Compound 4, 8: 1.00; 7: 1.20; 10: 2.00 mg/Kg), brain
[11] = intravenous route, group 1-2 mg/kg (Compound 4, 8: 1.00; 7: 1.20; 10: 2.00 mg/Kg), plasma
[12] = po, 200 mg/kg, brain AUC relative to plasma AUC, 200 mg/kg oral route, read-out: % AUC
[13] = po, 200 mg/kg, brain Cmax relative to plasma Cmax, 200 mg/kg oral route, read-out: % Cmax

CC(C)Sc1cc(/C=N/O)nc2c1ccc1cccnc12 [Compound 7, 4-Isopropylsulfanyl-[1,10]phenanthroline-2-carbaldehyde oxime]
Kp [1, 4]: 1.04
Kp [1, 5]: 3.71
Kp [1, 6]: 0.278
Kp [1, 7]: 0.417
bioavailability [1, 8]: 7.11%
bioavailability [1, 9]: 3.19%
Tmax ([1]; 20 mg/kg oral route, brain): 240 min
half-life ([1]; 20 mg/kg oral route, brain): 43.8 min
AUC ([1]; 20 mg/kg oral route, plasma): 378 ng·h/mL
Cmax ([1]; 20 mg/kg oral route, plasma): 106 ng/mL
Tmax ([1]; 20 mg/kg oral route, plasma): 18 min
half-life ([1]; 20 mg/kg oral route, plasma): 99.6 min
AUC ([1]; 200 mg/kg oral route, plasma): 1700 ng·h/mL
Cmax ([1]; 200 mg/kg oral route, plasma): 1210 ng/mL
Tmax ([1]; 200 mg/kg oral route, plasma): 30 min
Tmax [1, 10]: 4.8 min
AUC [1, 11]: 319 ng·h/mL
Cmax [1, 11]: 104 ng/mL
Tmax [1, 11]: 60 min
half-life [1, 11]: 268 min
Cmax Brain ([1]; 20 mg/kg oral route, brain): 19.62 ng/g
Cmax Brain [1, 10]: 386.10 ng/g
Maximum concentration tested for toxicity [2]: 1 mM
Toxic at maximum concentration tested (Yes/No) ([2]; at 1 mM): Yes
minimal effective concentration [3]: 0.05 µM

CSc1cc(/C=N/O)nc2c1ccc1cccnc12 [Compound 4, 4-Methylsulfanyl-[1,10]phenanthroline-2-carbaldehyde oxime]
Kp [1, 4]: 1.27
Kp [1, 5]: 1.33
Kp [1, 6]: 2.76
Kp [1, 7]: 0.742
Kp [1, 12]: 1.12
Kp [1, 13]: 1.5
bioavailability [1, 8]: 1.01%
bioavailability [1, 9]: 19.1%
Tmax ([1]; 20 mg/kg oral route, brain): 15 min
half-life ([1]; 20 mg/kg oral route, brain): 39.6 min
AUC ([1]; 20 mg/kg oral route, plasma): 7.24 ng·h/mL
Cmax ([1]; 20 mg/kg oral route, plasma): 20.8 ng/mL
Tmax ([1]; 20 mg/kg oral route, plasma): 15 min
half-life ([1]; 20 mg/kg oral route, plasma): 18 min
Tmax ([1]; 200 mg/kg oral route, brain): 30 min
half-life ([1]; 200 mg/kg oral route, brain): 56.4 min
AUC ([1]; 200 mg/kg oral route, plasma): 1380 ng·h/mL
Cmax ([1]; 200 mg/kg oral route, plasma): 931 ng/mL
Tmax ([1]; 200 mg/kg oral route, plasma): 30 min
half-life ([1]; 200 mg/kg oral route, plasma): 55.2 min
Tmax [1, 10]: 15 min
half-life [1, 10]: 23.4 min
AUC [1, 11]: 36 ng·h/mL
Cmax [1, 11]: 78.7 ng/mL
Tmax [1, 11]: 15 min
half-life [1, 11]: 13.2 min
Cmax Brain ([1]; 20 mg/kg oral route, brain): 15.40 ng/g
Cmax Brain ([1]; 200 mg/kg oral route, brain): 1394.40 ng/g
Cmax Brain [1, 10]: 104.40 ng/g
Maximum concentration tested for toxicity [2]: 1 mM
Toxic at maximum concentration tested (Yes/No) ([2]; at 1 mM): Yes
minimal effective concentration [3]: 0.05 µM

COCCOc1cc(/C=N/O)nc2c1ccc1cccnc12 [Compound 8, 4-(2-Methoxy-ethoxy)-[1,10]phenanthroline-2-carbaldehyde oxime]
Kp [1, 4]: 0.0439
Kp [1, 5]: 0.0524
Kp [1, 6]: 0.0418
Kp [1, 7]: 0.0621
bioavailability [1, 8]: 6.67%
Tmax ([1]; 20 mg/kg oral route, brain): 15 min
half-life ([1]; 20 mg/kg oral route, brain): 108 min
AUC ([1]; 20 mg/kg oral route, plasma): 325 ng·h/mL
Cmax ([1]; 20 mg/kg oral route, plasma): 396 ng/mL
Tmax ([1]; 20 mg/kg oral route, plasma): 15 min
half-life ([1]; 20 mg/kg oral route, plasma): 234 min
Tmax [1, 10]: 15 min
half-life [1, 10]: 10.8 min
AUC [1, 11]: 244 ng·h/mL
Cmax [1, 11]: 690 ng/mL
Tmax [1, 11]: 15 min
half-life [1, 11]: 66.6 min
Cmax Brain ([1]; 20 mg/kg oral route, brain): 24.60 ng/g
Cmax Brain [1, 10]: 36.10 ng/g
Maximum concentration tested for toxicity [2]: 1 mM
Toxic at maximum concentration tested (Yes/No) ([2]; at 1 mM): No
Protect. H2O2 (minimum concentration for which protection was determined) [3]: 50 nM

CCN(CC)CCOc1cc(/C=N/O)nc2c1ccc1cccnc12 [Compound 10, 4-(2-Diethylamino-ethoxy)-[1,10]phenanthroline-2-carbaldehyde oxime]
Kp [1, 4]: 0.229
Kp [1, 5]: 0.137
Kp [1, 6]: 0.119
Kp [1, 7]: 0.0876
Kp [1, 12]: 8.32
Kp [1, 13]: 1.96
bioavailability [1, 8]: 12.5%
bioavailability [1, 9]: 77.6%
Tmax ([1]; 20 mg/kg oral route, brain): 60 min
AUC ([1]; 20 mg/kg oral route, plasma): 184 ng·h/mL
Cmax ([1]; 20 mg/kg oral route, plasma): 149 ng/mL
Tmax ([1]; 20 mg/kg oral route, plasma): 60 min
half-life ([1]; 20 mg/kg oral route, plasma): 240 min
Tmax ([1]; 200 mg/kg oral route, brain): 120 min
AUC ([1]; 200 mg/kg oral route, plasma): 11500 ng·h/mL
Cmax ([1]; 200 mg/kg oral route, plasma): 3950 ng/mL
Tmax ([1]; 200 mg/kg oral route, plasma): 30 min
half-life ([1]; 200 mg/kg oral route, plasma): 227 min
Tmax [1, 10]: 4.8 min
half-life [1, 10]: 156 min
AUC [1, 11]: 148 ng·h/mL
Cmax [1, 11]: 136 ng/mL
Tmax [1, 11]: 4.8 min
half-life [1, 11]: 486 min
Cmax Brain ([1]; 20 mg/kg oral route, brain): 13.07 ng/g
Cmax Brain ([1]; 200 mg/kg oral route, brain): 7751.80 ng/g
Cmax Brain [1, 10]: 18.7 ng/g
Maximum concentration tested for toxicity [2]: 0.001 mM
Toxic at maximum concentration tested (Yes/No) ([2]; at 1 μM): Yes
Protect. H2O2 (minimum concentration for which protection was determined) [3]: 50 nM
